From patent US20110183948A1, “TREATMENT OF FIBROTIC CONDITIONS USING HEDGEHOG INHIBITORS” (INFINITY PHARMACEUTICALS, INC., priority 2010, published 2011)
Several values for one entry are separate records, joined by “and”; a condition that tells them apart may be missing. Equal values may be shown once. Entries after “also recorded” stand apart in the source; their conditions may differ.

Experiments:
[1] = test system: white blood cells in bronchiolar lavage fluid; experiment: Bleomycin-induced pulmonary fibrosis model (INF-01): bronchiolar lavage fluid cell counts; format: in vivo, C57BL/6 mice; parameters: Bronchiolar lavage fluid counts WBC: unit not given here; settings: for Bronchiolar lavage fluid counts % lymph / Bronchiolar lavage fluid counts % monos / Bronchiolar lavage fluid counts % neutro / Bronchiolar lavage fluid counts WBC: individual animals
Protocol: (§1) Thirty-two C57/B6 mice were prospectively randomized into four equally sized groups of eight animals each. An additional four mice served as naïve controls. Pulmonary fibrosis was induced with a single dose of bleomycin (4 U/kg) given intra-nasally on Day 0. Animals' activity and weight were evaluated daily. IPI 926 or vehicle was given every other day from 10 days prior to bleomycin until sacrifice on Day 30, or IPI926 was given beginning on either Day 0 or Day 14 on alternate days until the end of the study. At the end of the study on Day 30, all mice were euthanized and bronchiolar lavage performed to enable an evaluation of the inflammatory infiltrate in the lungs and collect the fluid for possible cytokine evaluation. One lung from each animal was collected for histology, while the other was snap frozen and retained for possible additional analyses.
At necropsy, the inflammatory infiltrated was evaluated by counting cells in the fluid collected following bronchiolar lavage. Bronchiolar lavage was performed by inserting a 20-gauge cannula into the trachea, which was tied in place with suture. The cannula was attached to a 1 mL syringe which was used to deliver and then recover 1 mL of sterile PBS. This fluid was then centrifuged to recover the cells and the resulting fluid saved for potential evaluation. Cell counts were performed on a HTI PCE-90vet automated veterinary hematology analyzer.
At sacrifice, BAL fluids were collected from all animals. The cells from these fluids were evaluated for differential white count. The fluids were retained for cytokine analysis.

[2] = test system: pulmonary fibrosis induced by bleomycin; experiment: Bleomycin-induced pulmonary fibrosis model (INF-01): lung histology scoring; format: in vivo, C57BL/6 mice; parameters: key to Chronic Inflammation (0-5): 0: None present; 1: Rare foci; minimal; 2: Scattered aggregates or mild diffuse inflammation; 3: Numerous aggregates or moderate diffuse inflammation; 4: More marked inflammation either scattered or diffuse; 5: More severe inflammation either scattered diffuse inflammation; settings: for pulmonary fibrosis and associated inflammation compared to the vehicle control group: 40 mg/kg, not statistically significant (Kruskal-Wallis); for mean interstitial fibrosis foci count: foci that fill a 10x objective field; for mean chronic inflammation score / mean interstitial fibrosis score: scale 0-5; for Chronic Inflammation (0-5) / Interstitial Fibrosis (0-5) / Number of Foci of Interstitial Fibrosis that Fill a 10x Objective Field: individual animals
Protocol: as §1
Bleomycin, a glycopeptides anti-cancer agent originally isolated from Streptomyces verticillus is currently approved for use against squamous cell carcinoma, testicular cancer and Hodgkin's disease. Pulmonary fibrosis is a significant toxicity associated with the use of bleomycin, occurring in a significant percentage of patients undergoing bleomycin therapy. In C57/B6 mice, pulmonary inflammation and subsequent fibrosis is reproducible following bleomycin treatment, and the severity of pulmonary fibrosis is dose-dependent with higher doses being used to evaluate short term inflammatory effects, while lower doses are used to study the longer term impact of pulmonary fibrosis. In this model, mice are given 4 U/kg of bleomycin intranasally and pulmonary fibrosis is evaluated histologically 30 days after the administration of the bleomycin.
Each lung sample was trimmed into 1-3 sections. Tissues were embedded in paraffin and sectioned at approximately 5 microns. Two slides for each lung were stained. One was stained with hematoxylin and eosin (H&E) and another serial section was stained with a trichrome stain. All slides were examined by a board-certified veterinary pathologist. Tissues were scored for chronic inflammation and interstitial fibrosis according to the criteria in Table 5 below. In addition the number of foci of interstitial fibrosis in the lung that filled a 10× objective field (100× total magnification) were counted and reported. Statistical analysis was performed with GraphPad Prism version 4.03 and included a Kruskal-Walis test followed by a Dunn's post-test comparing all groups to each other. Individual animal findings are listed herein in the Tables below.
Lungs were taken at sacrifice on Day 30 for analysis. Lungs were removed and partitioned in two halves. On half was fixed in 10% formalin, before embedding and sectioning. Slides made from each sample were stained with H&E or Masson's Trichrome. The other half of lung sample were snap-frozen in liquid nitrogen and stored at −80 C for future analysis of mRNA by QT-PCR and/or proteomic analysis.

[3] = test system: Sonic Hedgehog (SHh) and Gli-1; experiment: Immunohistochemistry of lung samples from the bleomycin lung fibrosis study for SHh and Gli-1; format: in vivo, C57BL/6 mice
Protocol: I. IHC protocol to detect Gli1 on murine and human tissues: Rabbit anti-mouse Gli1 (Novus Biologicals NBP1-03294), Whole Rabit IgG2 Positive control: RMS, BCC
• 1. Dilute the Gli1, 1:200, in DaVinci Green Diluent. Add ratIgG2a, at same dilution, to the negative controls. Add a volume of 300 μl to each slide. • 2. Incubate for 1.5 hours at room temperature.
Rabbit anti-human SHh (Abcam# ab53281). Isotype control: Whole Rabbit IgG Positive control: Pancreatic xenograft Secondary: Rabbit-on-Rodent Polymer (Biocare Medical RMR622) for xenografts or Mach 2 (Biocare Medical RHRP520) for human tissue Wash buffer: PBS+0.5% Tween Citrate Retrieval buffer DaVinci Green Primary Ab diluent (Biocrae Medical PD900) DAB Enhancer (Zymed Cat. No. 00-2021)
• 1. Dilute the SHH, 1:2000 (optimized on the DAKO autostainer), in DaVinci Green Diluent. Add RabbitIgG, at same dilution, to the negative controls. Add a volume of 300 μl to each slide. • 2. Incubate for 90 minutes at room temperature.

[4] = Example 2B bleomycin-induced pulmonary fibrosis: body weight and survival; format: in vivo, C57BL/6 mice
Protocol: Experimental conditions used in this study are similar to the ones described in Example 2A. […] Mice were treated with bleomycin (BLM) on day 0 and controls received saline (SAL).
The effects of IPI-926 in body weight and survival that accompany bleomycin insult are shown in FIGS. 15 and 16, respectively.

[5] = test system: pancreatic adenocarcinoma; experiment: KPC mouse model of pancreatic adenocarcinoma / pancreatic animal models; format: in vivo
[6] = Group 2: Qod, Day −10 to Day 30
[7] = groups Day 0 to 30 or Day 14 to 30
[8] = all three treatments, Day-10 to Day 30 greatest effect

## CC1=C2C[C@H]3[C@@H](CC[C@@H]4C[C@H](NS(C)(=O)=O)CC[C@@]43C)[C@@H]2CC[C@@]2(C1)O[C@@H]1C[C@H](C)CN[C@H]1[C@H]2C [IPI-926]
[1]; Day −10 to 30
  mean lymphocytes in bronchiolar lavage fluid: 41%
  mean monocytes in bronchiolar lavage fluid: 1.5%
  mean neutrophils in bronchiolar lavage fluid: 48%
[1]; Day −10 to Day 30
  mean WBC count in bronchiolar lavage fluid: 1.53 ×10^6 cells/μL
[1]; Days 0-30
  mean WBC count in bronchiolar lavage fluid: 1.09 ×10^6 cells/μL
[1]; Days 14-20 (so in the source)
  mean WBC count in bronchiolar lavage fluid: 0.79 ×10^6 cells/μL
[1]; [6]
  Bronchiolar lavage fluid counts % lymph: 43% and 44% (2×) and 41% and 26% and 46%
  Bronchiolar lavage fluid counts % monos: 4% (2×) and 6% (2×) and 8% and 3%
  Bronchiolar lavage fluid counts % neutro: 43% and 41% and 48% and 60% and 49% and 47%
  Bronchiolar lavage fluid counts WBC: 0.6 and 1.3 and 2.1 (2×) and 1.9 and 1.2
[1]; Group 3: Qod, Day 0 to Day 30
  Bronchiolar lavage fluid counts % lymph: 41% and 45% and 46% (2×) and 40% and 56% and 51% and 49%
  Bronchiolar lavage fluid counts % monos: 4% (4×) and 3% (2×) and 7% and 5%
  Bronchiolar lavage fluid counts % neutro: 43% and 47% and 44% and 52% and 41% and 34% and 42% and 45%
  Bronchiolar lavage fluid counts WBC: 1.3 (3×) and 0.1 and 0.9 and 1.5 and 1.1 and 1.2
[1]; Group 4: Qod, Day 14 to Day 30
  Bronchiolar lavage fluid counts % lymph: 51% and 53% and 54% and 42% and 55% and 46% and 45% and 49%
  Bronchiolar lavage fluid counts % monos: 3% (3×) and 9% and 4% and 1% and 2% and 11%
  Bronchiolar lavage fluid counts % neutro: 42% and 28% and 41% and 50% and 35% and 49% and 43% and 45%
  Bronchiolar lavage fluid counts WBC: 1.1 (2×) and 0.9 (3×) and 0.4 (2×) and 0.6
[1]; all groups treated, greatest in Day 14 to Day 30 group
  white cell count in bronchiolar lavage: reductions in the number of white cells in the bronchiolar lavage; also recorded: Reductions in white cell count
[1]; [7]
  mean lymphocytes in bronchiolar lavage fluid: 47-49%
  mean neutrophils in bronchiolar lavage fluid: 42-44%
[2]
  pulmonary fibrosis and associated inflammation compared to the vehicle control group: reduction in pulmonary fibrosis and associated inflammation
[2]; listed as IPI926
  pulmonary fibrosis and associated inflammation compared to the vehicle control group: effective in reducing the histological features of bleomycin induced pulmonary fibrosis
[2]; Day −10 to Day 30
  mean interstitial fibrosis foci count: 2.1
  mean chronic inflammation score: 1.0
  mean interstitial fibrosis score: 1.0
[2]; Days 0 to 30
  mean interstitial fibrosis foci count: 3.4
  mean chronic inflammation score: 1.1
  mean interstitial fibrosis score: 1.1
[2]; Days 14 to 30
  mean interstitial fibrosis foci count: 5.9
  mean chronic inflammation score: 1.6
  mean interstitial fibrosis score: 1.6
[2]; [6]
  Chronic Inflammation (0-5): 1
  Interstitial Fibrosis (0-5): 1 (1-6 foci that fill a 10x objective field)
  Number of Foci of Interstitial Fibrosis that Fill a 10x Objective Field: 2 (2×) and 1 (3×) and 4 (2×)
[2]; Group 3: Qod, Day 0 to Day 30
  Chronic Inflammation (0-5): 1 (7×) and 2
  Interstitial Fibrosis (0-5): 1 (1-6 foci that fill a 10x objective field) (7×) and 2 (7-12 foci that fill a 10x objective field)
  Number of Foci of Interstitial Fibrosis that Fill a 10x Objective Field: 2 (3×) and 10 and 1 (2×) and 4 and 5
[2]; Group 4: Qod, Day 14 to Day 30
  Chronic Inflammation (0-5): 1 (5×) and 3 (2×) and 2
  Interstitial Fibrosis (0-5): 1 (1-6 foci that fill a 10x objective field) (5×) and 3 (13-18 foci that fill a 10x objective field) (2×) and 2 (7-12 foci that fill a 10x objective field)
  Number of Foci of Interstitial Fibrosis that Fill a 10x Objective Field: 2 (4×) and 14 and 17 and 7 and 1
[2]; all three treatments, Day 0 to Day 30 greatest effect
  Chronic Inflammation Scores compared to Vehicle (FIG. 7): reduce inflammation compared to the Vehicle control group
[2]; [8]
  Interstitial Fibrosis Scores compared to Vehicle (FIG. 8): reduce inflammation compared to the Vehicle control group
  number of foci of interstitial fibrosis compared to Vehicle (FIG. 9): reduce inflammation compared to the Vehicle control group
[2]; d=−10, Mann-Whitney test, p<0.05
  amount of lung fibrosis induced by bleomycin: decreases the amount of lung fibrosis induced by bleomycin in a statistically significant manner
[3]; d=−10, d=0, d=14
  SHh immunoreactivity: only IPI-926 administered at d=−10 appeared to have an effect on this signal
[3]; d=−10, d=0 and d=14
  Gli-1 immunoreactivity in comparison to vehicle treatment: appears to decrease the Gli-1 immunoreactivity
[4]
  animal death / survival after bleomycin administration: significantly abrogates the increase in animal death
  body weight loss that accompanies bleomycin insult: reduces the dramatic loss in body weight
[5]; KPC mouse model
  desmoplastic infiltration: inhibition of desmoplastic infiltration
  metastasis: decreased metastasis
  survival: increased survival
[5]; pancreatic animal models
  desmoplastic component: dramatic effect on the desmoplastic component
